Target: PI3K delta (Homo sapiens, UniProt O00329)
Assay: PI3K delta inhibition in Rat1-myr-HA-p110 delta cells (Akt Ser473 phosphorylation, AlphaScreen SureFire)
Type: cell-based
Set-up: myristylation signal (myr) (N); HA tag (N); expressed in transfected cells; host or cells: Rat1 cells, stably transfected
Conditions: read-out: Cell PI3Kδ/ IC50
Method: Untreated cells were used as low controls, cells stimulated in absence of compounds were used as high controls. […] Cell lysates were either used immediately of stored frozen (in sealed plates) at −20° C. until use. […] Addition of AlphaScreen® SureFire® reagents was done according to the manufacturer's protocol. First, 5 ul of reaction buffer plus activation buffer mix containing AlphaScreen® acceptor beads was added, the plate was sealed, and incubated on a plate shaker for 2 hours at room temperature. […] The difference between high and low controls was taken as 100% and compound effects were expressed as percent inhibition. IC50 values were determined from the dose response curves by graphical extrapolation.

Chain of PI3K delta (O00329 whole entry): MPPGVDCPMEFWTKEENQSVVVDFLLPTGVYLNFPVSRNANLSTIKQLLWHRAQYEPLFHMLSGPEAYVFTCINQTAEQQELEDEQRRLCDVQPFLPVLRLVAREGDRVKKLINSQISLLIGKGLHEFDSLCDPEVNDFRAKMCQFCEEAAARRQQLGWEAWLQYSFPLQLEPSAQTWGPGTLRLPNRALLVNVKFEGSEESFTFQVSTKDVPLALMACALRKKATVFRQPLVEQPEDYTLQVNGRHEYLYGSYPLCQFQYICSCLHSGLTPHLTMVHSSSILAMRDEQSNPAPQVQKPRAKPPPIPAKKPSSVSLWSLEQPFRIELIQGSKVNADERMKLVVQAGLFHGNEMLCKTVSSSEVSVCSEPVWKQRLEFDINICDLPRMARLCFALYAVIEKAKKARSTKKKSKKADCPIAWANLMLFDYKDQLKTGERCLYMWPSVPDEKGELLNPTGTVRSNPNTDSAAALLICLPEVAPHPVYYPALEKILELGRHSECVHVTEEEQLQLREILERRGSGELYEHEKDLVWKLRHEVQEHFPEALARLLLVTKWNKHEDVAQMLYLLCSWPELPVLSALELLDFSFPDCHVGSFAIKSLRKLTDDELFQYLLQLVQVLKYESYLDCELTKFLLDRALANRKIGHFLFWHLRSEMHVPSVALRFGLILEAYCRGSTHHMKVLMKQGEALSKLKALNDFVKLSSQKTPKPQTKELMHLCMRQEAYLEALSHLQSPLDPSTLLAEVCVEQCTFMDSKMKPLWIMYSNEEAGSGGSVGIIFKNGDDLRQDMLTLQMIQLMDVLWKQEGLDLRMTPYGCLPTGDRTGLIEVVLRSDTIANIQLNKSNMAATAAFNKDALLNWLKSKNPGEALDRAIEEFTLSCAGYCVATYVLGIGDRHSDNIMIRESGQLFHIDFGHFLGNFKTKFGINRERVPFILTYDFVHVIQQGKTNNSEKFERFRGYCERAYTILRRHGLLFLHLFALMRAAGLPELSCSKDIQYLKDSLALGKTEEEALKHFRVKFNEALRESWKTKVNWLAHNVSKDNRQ
Chain of PI3K delta (Q63787 whole entry partner): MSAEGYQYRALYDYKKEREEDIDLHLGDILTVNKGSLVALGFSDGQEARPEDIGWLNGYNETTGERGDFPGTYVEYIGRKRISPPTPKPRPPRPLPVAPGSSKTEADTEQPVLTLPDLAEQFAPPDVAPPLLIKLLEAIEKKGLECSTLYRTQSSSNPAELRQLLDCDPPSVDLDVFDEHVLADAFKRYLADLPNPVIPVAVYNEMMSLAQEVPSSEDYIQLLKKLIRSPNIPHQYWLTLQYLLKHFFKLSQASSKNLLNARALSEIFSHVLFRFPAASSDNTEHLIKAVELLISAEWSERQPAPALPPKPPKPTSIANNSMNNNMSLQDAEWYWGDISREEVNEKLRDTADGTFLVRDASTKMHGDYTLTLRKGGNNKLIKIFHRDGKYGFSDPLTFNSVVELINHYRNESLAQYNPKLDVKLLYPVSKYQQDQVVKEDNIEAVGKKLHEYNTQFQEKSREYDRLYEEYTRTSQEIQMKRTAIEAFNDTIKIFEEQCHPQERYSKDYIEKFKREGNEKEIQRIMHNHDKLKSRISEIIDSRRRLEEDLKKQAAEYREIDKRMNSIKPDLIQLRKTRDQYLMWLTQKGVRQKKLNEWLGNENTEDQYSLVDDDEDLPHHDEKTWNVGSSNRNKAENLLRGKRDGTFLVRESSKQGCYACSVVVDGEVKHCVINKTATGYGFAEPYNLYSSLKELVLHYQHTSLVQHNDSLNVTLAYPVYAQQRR

Molecule `COc1ncc(N2CCc3ncnc(O[C@H]4CCN(C(=O)c5cn(C)cn5)C4)c3C2)cc1C` [Example 20, {(S)-3-[6-(6-Methoxy-5-methyl-pyridin-3-yl)-5,6,7,8-tetrahydro-pyrido[4,3-d]pyrimidin-4-yloxy]-pyrrolidin-1-yl}-(1-methyl-1H-imidazol-4-yl)-methanone] has an IC50 of 254 nM.

Source: patent US9949979B2, “Use of inhibitors of the activity or function of PI3K” (NOVARTIS AG, priority 2011, dated 2018)
